Test results from PubChem BioAssay (NCI).
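GI50 is the concentration that inhibits growth by half. TGI: concentration producing complete growth inhibition.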

Tests used:
Test in all cases: growth of human tumour cells (NCI), 384-well format
[1] = test system: M14 melanoma
[2] = test system: HCT-116 colon
[3] = test system: SF-268 CNS
[4] = test system: HCT-15 colon
[5] = test system: IGROV1 ovarian
[6] = test system: RPMI-8226 leukemia
[7] = test system: T-47D breast
[8] = test system: HL-60(TB) leukemia
[9] = test system: MCF7 breast
[10] = test system: KM12 colon
[11] = test system: NCI-H322M lung
[12] = test system: SF-295 CNS
[13] = test system: MALME-3M melanoma
[14] = test system: BT-549 breast
[15] = test system: UO-31 renal
[16] = test system: HOP-62 NSCLC
[17] = test system: NCI-H460 NSCLC
[18] = test system: RXF 393 renal
[19] = test system: MOLT-4 leukemia
[20] = test system: U251 glioblastoma
[21] = test system: 786-0 renal
[22] = test system: A549 NSCLC
[23] = test system: CCRF-CEM leukemia
[24] = test system: SK-OV-3 ovarian
[25] = test system: HOP-92 NSCLC
[26] = test system: NCI-H522 lung
[27] = test system: K-562 leukemia
[28] = test system: OVCAR-8 ovarian
[29] = test system: SW-620 colon
[30] = test system: SK-MEL-5 melanoma
[31] = test system: MDA-MB-468 breast
[32] = test system: MDA-MB-231 breast
[33] = test system: A498 renal
[34] = test system: OVCAR-3 ovarian
[35] = test system: SF-539 CNS
[36] = test system: NCI-H226 lung
[37] = test system: SN12C renal
[38] = test system: NCI-H23 lung
[39] = test system: HS 578T breast
[40] = test system: HCC-2998 colon
[41] = test system: CAKI-1 renal
[42] = test system: TK-10 renal
[43] = test system: DU-145 prostate
[44] = test system: SK-MEL-28 melanoma
[45] = test system: NCI/ADR-RES ovarian
[46] = test system: HT29 colon
[47] = test system: EKVX NSCLC
[48] = test system: OVCAR-4 ovarian
[49] = test system: ACHN renal
[50] = test system: UACC-257 melanoma
[51] = test system: UACC-62 melanoma
[52] = test system: LOX IMVI melanoma
[53] = test system: PC-3 prostate
[54] = test system: SNB-75 CNS
[55] = test system: SNB-19 CNS
[56] = test system: SR leukemia
[57] = test system: MDA-MB-435 melanoma
[58] = test system: COLO 205 colon

SMILES: CCN(Cc1cc(Nc2nc(C)cn3c(-c4cn[nH]c4)cnc23)sn1)C(C)(C)CO
- GI50 [1]: < 10 nM
- TGI [1]: 142 nM
- GI50 [2]: < 10 nM
- TGI [2]: 1400 nM
- GI50 [3]: 14.8 nM
- TGI [3]: 170 nM
- GI50 [4]: 23.2 nM
- TGI [4]: 1560 nM
- GI50 [5]: 15.5 nM
- TGI [5]: 372 nM
- GI50 [6]: 29.1 nM
- TGI [6]: 123 nM
- GI50 [7]: 1050 nM
- TGI [7]: 11400 nM
- GI50 [8]: < 10 nM
- TGI [8]: < 10 nM
- GI50 [9]: 139 nM
- TGI [9]: 1580 nM
- GI50 [10]: 15.4 nM
- TGI [10]: 1040 nM
- GI50 [11]: 69.2 nM
- TGI [11]: 1660 nM
- GI50 [12]: 102 nM
- TGI [12]: 319 nM
- GI50 [13]: 26.6 nM
- TGI [13]: 1130 nM
- GI50 [14]: 11.6 nM
- TGI [14]: 50.4 nM
- GI50 [15]: 64.1 nM
- TGI [15]: 1700 nM
- GI50 [16]: 21 nM
- TGI [16]: 178 nM
- GI50 [17]: 26.1 nM
- TGI [17]: 1130 nM
- GI50 [18]: < 10 nM
- TGI [18]: 133 nM
- GI50 [19]: < 10 nM
- TGI [19]: < 10 nM
- GI50 [20]: 42.5 nM
- TGI [20]: 1180 nM
- GI50 [21]: 45.7 nM
- TGI [21]: 370 nM
- GI50 [22]: 42.3 nM
- TGI [22]: 1450 nM
- GI50 [23]: < 10 nM
- TGI [23]: < 10 nM
- GI50 [24]: < 10 nM
- TGI [24]: 41.1 nM
- GI50 [25]: 32.3 nM
- TGI [25]: 178 nM
- GI50 [26]: < 10 nM
- TGI [26]: 64.6 nM
- GI50 [27]: < 10 nM
- TGI [27]: < 10 nM
- GI50 [28]: 21.3 nM
- TGI [28]: 188 nM
- GI50 [29]: 16.3 nM
- TGI [29]: 1360 nM
- GI50 [30]: 118 nM
- TGI [30]: 537 nM
- GI50 [31]: < 10 nM
- TGI [31]: < 10 nM
- GI50 [32]: 30 nM
- TGI [32]: 830 nM
- GI50 [33]: 13.2 nM
- TGI [33]: 299 nM
- GI50 [34]: 16.3 nM
- TGI [34]: 204 nM
- GI50 [35]: 12 nM
- TGI [35]: 57.2 nM
- GI50 [36]: < 10 nM
- TGI [36]: 152 nM
- GI50 [37]: 13.7 nM
- TGI [37]: 61.3 nM
- GI50 [38]: 40.9 nM
- TGI [38]: 274 nM
- GI50 [39]: 15.6 nM
- TGI [39]: 39 nM
- GI50 [40]: 99.9 nM
- TGI [40]: 362 nM
- GI50 [41]: < 10 nM
- TGI [41]: 42.1 nM
- GI50 [42]: 72.5 nM
- TGI [42]: 378 nM
- GI50 [43]: 21.3 nM
- TGI [43]: 1270 nM
- GI50 [44]: 169 nM
- TGI [44]: 9720 nM
- GI50 [45]: 534 nM
- TGI [45]: 4080 nM
- GI50 [46]: 74.1 nM
- TGI [46]: 490 nM
- GI50 [47]: 32.1 nM
- TGI [47]: 1500 nM
- GI50 [48]: 114 nM
- TGI [48]: 357 nM
- GI50 [49]: 33.4 nM
- TGI [49]: 10600 nM
- GI50 [50]: 1070 nM
- TGI [50]: 2310 nM
- GI50 [51]: 18.7 nM
- TGI [51]: 1270 nM
- GI50 [52]: 27.6 nM
- TGI [52]: 134 nM
- GI50 [53]: 21 nM
- TGI [53]: 2000 nM
- GI50 [54]: 10 nM
- TGI [54]: 36.9 nM
- GI50 [55]: 53.4 nM
- TGI [55]: 1070 nM
- GI50 [56]: < 10 nM
- TGI [56]: < 10 nM
- GI50 [57]: 71.2 nM
- TGI [57]: 242 nM
- GI50 [58]: < 10 nM
- TGI [58]: 100 nM
